Earlier results, collected in patent publication US20190124865A1, “APPARATUS AND METHOD FOR INACTIVATING PLANT PATHOGENS WHILE STIMULATING PLANT GROWTH VIA SELECTIVE APPLICATION OF OXYGEN/OZONE GAS MIXTURES, AND CARBON DIOXIDE, IN A MULTI COMPARTMENT SYSTEM” (priority 2017, published 2019).

Tests used:
[1] = gaseous milieu, room temperature
[2] = tested on: coliform bacteria; conditions: ozone 5% per volume admixed with oxygen
[3] = tested on: staphylococcus aureus; conditions: ozone 5% per volume admixed with oxygen
[4] = tested on: Aeromonas hydrophilia; conditions: ozone 5% per volume admixed with oxygen
[5] = tested on: fungal species; conditions: ozone 5% by volume, given time
[6] = tested on: plants; conditions: 30% increase in ambient carbon dioxide, in the order of 100 ppm to 150 ppm

Compound	rate of reversion to pure oxygen [1]	inactivation of coliform bacteria [2]	inactivation of staphylococcus aureus [3]	inactivation of Aeromonas hydrophilia [4]	effect on fungal species [5]	increase in plant growth [6] [%]
O=[O+][O-] [Ozone, ozone]	about 50 % per hour	rapidly inactivates	rapidly inactivates	rapidly inactivates	inexorable distress to any and all fungal species, leading to their demise	
O=C=O [carbon dioxide]						30
